Measured values reported in ChEMBL document CHEMBL4359920 (Eur J Med Chem, 2019).

What was measured:
[1] = molecular target: T1, Protein deacetylase HDAC6 (Homo sapiens, UniProt Q9UBN7); assay: Inhibition of HDAC6 in human HCT116 cells assessed as alpha tubulin acetylation at 0.1 to 10000 nM after 24 hrs by Western blot analysis; type: cell-based; conditions: 10 µM
T1 sequence (Q9UBN7 whole entry): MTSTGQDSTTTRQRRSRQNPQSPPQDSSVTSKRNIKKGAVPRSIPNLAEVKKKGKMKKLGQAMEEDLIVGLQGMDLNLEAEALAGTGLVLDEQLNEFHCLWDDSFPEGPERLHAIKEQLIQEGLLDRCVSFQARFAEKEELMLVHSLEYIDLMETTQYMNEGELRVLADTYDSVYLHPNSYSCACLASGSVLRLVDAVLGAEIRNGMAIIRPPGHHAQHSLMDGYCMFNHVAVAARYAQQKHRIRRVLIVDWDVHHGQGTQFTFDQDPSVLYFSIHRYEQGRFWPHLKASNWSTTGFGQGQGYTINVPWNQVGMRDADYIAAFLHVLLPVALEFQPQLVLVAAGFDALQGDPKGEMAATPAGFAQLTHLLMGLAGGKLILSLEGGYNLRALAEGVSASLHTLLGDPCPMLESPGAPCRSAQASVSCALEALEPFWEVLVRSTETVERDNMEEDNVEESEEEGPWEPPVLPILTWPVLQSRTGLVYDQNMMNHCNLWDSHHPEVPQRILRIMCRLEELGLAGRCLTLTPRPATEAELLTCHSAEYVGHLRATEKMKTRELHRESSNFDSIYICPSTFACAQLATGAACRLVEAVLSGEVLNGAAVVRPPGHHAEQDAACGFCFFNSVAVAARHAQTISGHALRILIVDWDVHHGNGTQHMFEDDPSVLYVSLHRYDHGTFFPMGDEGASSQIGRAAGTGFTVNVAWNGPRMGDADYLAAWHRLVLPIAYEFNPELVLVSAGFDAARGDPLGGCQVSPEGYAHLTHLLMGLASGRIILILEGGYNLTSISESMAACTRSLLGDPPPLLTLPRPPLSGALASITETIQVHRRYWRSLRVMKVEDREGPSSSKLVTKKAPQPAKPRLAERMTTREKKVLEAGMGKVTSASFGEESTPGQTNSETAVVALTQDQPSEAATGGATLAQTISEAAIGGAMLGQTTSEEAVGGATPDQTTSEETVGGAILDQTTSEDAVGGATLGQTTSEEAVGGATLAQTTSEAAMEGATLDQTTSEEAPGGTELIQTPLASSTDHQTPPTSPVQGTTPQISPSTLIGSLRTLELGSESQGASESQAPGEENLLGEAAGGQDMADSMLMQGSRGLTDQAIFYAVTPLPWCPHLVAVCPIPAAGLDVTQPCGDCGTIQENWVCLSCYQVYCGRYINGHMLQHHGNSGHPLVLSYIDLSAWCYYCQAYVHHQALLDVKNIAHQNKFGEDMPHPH

[2] = tested on: SK-OV-3; assay: Antiproliferative activity against human SKOV3 cells assessed as reduction in cell viability after 72 hrs by MTT assay; type: functional, cell-based; conditions: SK-OV-3, 72 h
[3] = tested on: A549; assay: Antiproliferative activity against human A549 cells assessed as reduction in cell viability after 72 hrs by MTT assay; type: functional, cell-based; conditions: A549, 72 h
[4] = tested on: HCT-116; assay: Antiproliferative activity against human HCT116 cells assessed as reduction in cell viability after 72 hrs by MTT assay; type: functional, cell-based; conditions: HCT-116, 72 h
[5] = tested on: MDA-MB-231; assay: Antiproliferative activity against human MDA-MB-231 cells assessed as reduction in cell viability after 72 hrs by MTT assay; type: functional, cell-based; conditions: MDA-MB-231, 72 h
[6] = molecular target: Histone deacetylase (Homo sapiens) (UniProt Q13547+O15379+Q9UBN7+Q92769+Q9UQL6+Q8WUI4+Q9BY41+Q96DB2+P56524+Q9UKV0+Q969S8); assay: Inhibition of HDAC in human HCT116 cells assessed as increase in histone H3 acetylation after 24 hrs by Western blot analysis; type: cell-based
[7] = molecular target: T2, Histone deacetylase 8 (Homo sapiens, UniProt Q9BY41); assay: (§1) Inhibition of full length C-terminal His-tagged human HDAC8 expressed in baculovirus infected Sf9 cells using Ac-peptide-AMC as substrate preincubated for 15 mins followed by substrate addition and measured after 240 mins by fluorescence based assay
T2 sequence (Q9BY41 whole entry): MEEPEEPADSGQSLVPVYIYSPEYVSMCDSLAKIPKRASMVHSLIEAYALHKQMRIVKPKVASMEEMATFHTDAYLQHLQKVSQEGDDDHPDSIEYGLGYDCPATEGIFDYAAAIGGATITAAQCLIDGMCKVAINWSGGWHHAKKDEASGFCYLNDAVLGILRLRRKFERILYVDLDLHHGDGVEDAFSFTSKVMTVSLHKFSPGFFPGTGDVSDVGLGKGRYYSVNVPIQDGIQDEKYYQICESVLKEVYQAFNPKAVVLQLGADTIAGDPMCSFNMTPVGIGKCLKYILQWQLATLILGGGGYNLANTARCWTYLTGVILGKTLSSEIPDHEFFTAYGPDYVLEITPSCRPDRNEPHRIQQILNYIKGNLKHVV

[8] = molecular target: Histone deacetylase 3/Nuclear receptor corepressor 2 (HDAC3/NCoR2) (Homo sapiens, UniProt O15379); assay: as §1, with “of human recombinant” for “of”, “HDAC3 (1 to 428 residues)/N-terminal GST-tagged NCOR2 (395 to 489 residues)” for “human HDAC8”, “60” for “240”
Histone deacetylase 3/Nuclear receptor corepressor 2 (HDAC3/NCoR2), sequence (O15379 whole entry, the tested form may be a part): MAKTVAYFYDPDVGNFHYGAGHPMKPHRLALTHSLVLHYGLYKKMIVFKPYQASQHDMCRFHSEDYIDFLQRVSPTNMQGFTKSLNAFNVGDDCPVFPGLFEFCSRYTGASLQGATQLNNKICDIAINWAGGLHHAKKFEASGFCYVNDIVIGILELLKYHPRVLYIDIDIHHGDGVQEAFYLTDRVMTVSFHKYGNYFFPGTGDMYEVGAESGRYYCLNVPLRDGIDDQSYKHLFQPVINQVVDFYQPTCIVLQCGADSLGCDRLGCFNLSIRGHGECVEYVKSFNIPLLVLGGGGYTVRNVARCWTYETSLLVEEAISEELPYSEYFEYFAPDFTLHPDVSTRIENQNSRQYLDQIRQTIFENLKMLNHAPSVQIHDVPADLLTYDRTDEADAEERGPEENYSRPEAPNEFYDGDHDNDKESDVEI
Histone deacetylase 3/Nuclear receptor corepressor 2 (HDAC3/NCoR2), sequence (Q9Y618 whole entry, further chain, the tested form may be a part): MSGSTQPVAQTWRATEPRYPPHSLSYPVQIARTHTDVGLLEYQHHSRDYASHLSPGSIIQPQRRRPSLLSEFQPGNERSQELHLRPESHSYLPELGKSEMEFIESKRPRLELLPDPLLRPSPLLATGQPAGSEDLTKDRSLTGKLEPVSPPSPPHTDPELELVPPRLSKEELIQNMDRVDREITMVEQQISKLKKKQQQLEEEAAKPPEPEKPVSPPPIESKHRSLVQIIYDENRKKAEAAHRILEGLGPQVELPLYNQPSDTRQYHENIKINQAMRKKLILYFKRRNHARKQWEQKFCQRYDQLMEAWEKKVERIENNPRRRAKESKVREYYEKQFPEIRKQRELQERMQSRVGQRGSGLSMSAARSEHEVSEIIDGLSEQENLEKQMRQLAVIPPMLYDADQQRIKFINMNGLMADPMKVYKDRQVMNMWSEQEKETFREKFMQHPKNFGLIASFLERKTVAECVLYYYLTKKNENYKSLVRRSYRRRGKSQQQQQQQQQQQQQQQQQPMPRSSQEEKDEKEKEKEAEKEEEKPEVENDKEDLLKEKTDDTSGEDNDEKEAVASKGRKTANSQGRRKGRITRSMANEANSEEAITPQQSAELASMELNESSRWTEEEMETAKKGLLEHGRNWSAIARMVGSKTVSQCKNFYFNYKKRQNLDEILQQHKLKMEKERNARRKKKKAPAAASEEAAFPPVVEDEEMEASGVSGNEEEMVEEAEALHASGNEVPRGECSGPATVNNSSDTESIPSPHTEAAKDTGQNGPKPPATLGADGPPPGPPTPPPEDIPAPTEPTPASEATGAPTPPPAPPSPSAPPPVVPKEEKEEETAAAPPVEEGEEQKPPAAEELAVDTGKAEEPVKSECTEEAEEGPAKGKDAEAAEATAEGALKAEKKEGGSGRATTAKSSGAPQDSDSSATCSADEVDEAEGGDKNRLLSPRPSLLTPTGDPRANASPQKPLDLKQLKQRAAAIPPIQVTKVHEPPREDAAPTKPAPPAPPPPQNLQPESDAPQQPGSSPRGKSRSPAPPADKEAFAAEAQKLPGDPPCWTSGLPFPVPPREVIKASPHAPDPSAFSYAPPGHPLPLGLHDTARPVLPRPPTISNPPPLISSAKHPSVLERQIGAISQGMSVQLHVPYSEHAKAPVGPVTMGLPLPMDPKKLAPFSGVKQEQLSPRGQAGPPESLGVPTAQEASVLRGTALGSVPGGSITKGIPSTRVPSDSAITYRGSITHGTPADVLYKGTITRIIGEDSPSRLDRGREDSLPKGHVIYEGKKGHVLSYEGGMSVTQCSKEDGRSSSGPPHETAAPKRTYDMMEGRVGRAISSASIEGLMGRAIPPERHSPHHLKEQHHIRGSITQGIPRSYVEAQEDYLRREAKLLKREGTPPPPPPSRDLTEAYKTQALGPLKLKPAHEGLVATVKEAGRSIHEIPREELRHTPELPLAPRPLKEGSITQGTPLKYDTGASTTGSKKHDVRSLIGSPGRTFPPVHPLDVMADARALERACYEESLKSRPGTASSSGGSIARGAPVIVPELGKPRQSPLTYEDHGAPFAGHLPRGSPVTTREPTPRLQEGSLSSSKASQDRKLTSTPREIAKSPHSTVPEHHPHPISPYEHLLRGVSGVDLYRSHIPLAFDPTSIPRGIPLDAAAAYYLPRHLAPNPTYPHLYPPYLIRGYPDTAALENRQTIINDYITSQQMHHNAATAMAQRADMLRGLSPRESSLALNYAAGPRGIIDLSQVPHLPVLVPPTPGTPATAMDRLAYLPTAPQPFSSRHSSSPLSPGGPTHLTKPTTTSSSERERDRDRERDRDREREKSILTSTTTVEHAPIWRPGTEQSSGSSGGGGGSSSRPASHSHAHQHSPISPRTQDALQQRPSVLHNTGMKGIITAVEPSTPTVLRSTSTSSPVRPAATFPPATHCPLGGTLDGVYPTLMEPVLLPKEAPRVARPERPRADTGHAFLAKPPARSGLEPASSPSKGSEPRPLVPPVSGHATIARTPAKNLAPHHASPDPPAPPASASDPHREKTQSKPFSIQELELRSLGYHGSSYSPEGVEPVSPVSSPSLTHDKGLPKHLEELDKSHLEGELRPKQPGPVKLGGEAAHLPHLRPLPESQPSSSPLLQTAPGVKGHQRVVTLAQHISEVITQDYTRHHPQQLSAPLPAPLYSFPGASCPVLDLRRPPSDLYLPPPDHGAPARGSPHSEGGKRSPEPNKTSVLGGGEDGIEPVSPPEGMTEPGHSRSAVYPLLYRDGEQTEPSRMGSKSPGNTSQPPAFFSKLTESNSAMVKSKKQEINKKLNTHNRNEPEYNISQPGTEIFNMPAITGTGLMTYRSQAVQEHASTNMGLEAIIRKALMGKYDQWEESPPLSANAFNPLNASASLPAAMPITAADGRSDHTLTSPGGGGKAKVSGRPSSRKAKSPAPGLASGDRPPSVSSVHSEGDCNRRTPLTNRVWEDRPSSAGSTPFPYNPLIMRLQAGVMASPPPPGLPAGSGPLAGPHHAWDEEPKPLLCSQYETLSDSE

[9] = species on record: Homo sapiens; assay: Selectivity ratio of IC50 for inhibition of human recombinant full length C-terminal His-tagged HDAC3 (1 to 428 residues)/N-terminal GST-tagged NCOR2 (395 to 489 residues) expressed in baculovirus infected Sf9 cells to IC50 for inhibition recombinant full length C-terminal FLAG/His-tagged human HDAC1 expressed in baculovirus infected Sf9 cells
[10] = species on record: Homo sapiens; assay: Selectivity ratio of IC50 for inhibition of recombinant full length human HDAC2 expressed in baculovirus infected Sf9 cells to IC50 for inhibition of recombinant full length C-terminal FLAG/His-tagged human HDAC1 expressed in baculovirus infected Sf9 cells
[11] = molecular target: T1, Protein deacetylase HDAC6; assay: Inhibition of recombinant human HDAC6 using Ac-peptide-AMC as substrate preincubated for 15 mins followed by substrate addition and measured after 60 mins by fluorescence based assay; conditions: for inhibition (INH): human, 1 h
[12] = molecular target: Histone deacetylase 2 (Homo sapiens, UniProt Q92769); assay: biochemical; type: cell-based, Sf9
Histone deacetylase 2, sequence (Q92769 whole entry): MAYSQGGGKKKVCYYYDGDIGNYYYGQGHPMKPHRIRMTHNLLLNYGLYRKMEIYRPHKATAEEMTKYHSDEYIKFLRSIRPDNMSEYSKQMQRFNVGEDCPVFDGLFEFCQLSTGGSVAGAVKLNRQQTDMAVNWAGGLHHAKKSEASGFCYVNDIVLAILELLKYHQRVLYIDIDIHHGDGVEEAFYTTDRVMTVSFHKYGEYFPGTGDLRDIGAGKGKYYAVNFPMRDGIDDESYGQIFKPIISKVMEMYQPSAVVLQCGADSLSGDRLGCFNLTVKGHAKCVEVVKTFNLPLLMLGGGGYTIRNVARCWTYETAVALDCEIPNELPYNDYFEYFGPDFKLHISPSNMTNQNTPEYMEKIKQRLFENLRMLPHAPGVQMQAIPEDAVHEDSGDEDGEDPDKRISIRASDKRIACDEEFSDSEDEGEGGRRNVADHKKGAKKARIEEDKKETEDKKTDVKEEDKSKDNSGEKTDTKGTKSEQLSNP
Description: Inhibition of recombinant full length human HDAC2 expressed in baculovirus infected Sf9 cells using Ac-peptide-AMC as substrate preincubated for 15 mins followed by substrate addition and measured after 60 mins by fluorescence based assay

[13] = molecular target: Histone deacetylase 1 (Homo sapiens, UniProt Q13547); assay: Inhibition of recombinant full length C-terminal FLAG/His-tagged human HDAC1 expressed in baculovirus infected Sf9 cells using Ac-peptide-AMC as substrate preincubated for 15 mins followed by substrate addition and measured after 60 mins by fluorescence based assay
Histone deacetylase 1, sequence (Q13547 whole entry): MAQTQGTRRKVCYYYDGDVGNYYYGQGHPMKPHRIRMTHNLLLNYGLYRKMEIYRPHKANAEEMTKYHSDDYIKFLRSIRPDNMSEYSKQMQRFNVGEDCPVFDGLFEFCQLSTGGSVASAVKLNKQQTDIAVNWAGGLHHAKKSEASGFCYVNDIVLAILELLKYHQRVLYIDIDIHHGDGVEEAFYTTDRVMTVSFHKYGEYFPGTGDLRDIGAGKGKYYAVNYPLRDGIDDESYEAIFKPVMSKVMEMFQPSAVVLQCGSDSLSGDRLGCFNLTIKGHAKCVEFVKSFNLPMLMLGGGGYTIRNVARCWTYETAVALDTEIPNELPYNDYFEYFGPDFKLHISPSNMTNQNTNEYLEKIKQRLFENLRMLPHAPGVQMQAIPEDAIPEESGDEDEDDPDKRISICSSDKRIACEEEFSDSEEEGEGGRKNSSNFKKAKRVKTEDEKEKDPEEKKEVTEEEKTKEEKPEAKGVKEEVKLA

CCCCCCCC(=O)SCC/C(F)=C/[C@@H]1CC(=O)NCc2nc(cs2)C2=N[C@@](C)(CS2)C(=O)N[C@@H](C(C)C)C(=O)O1
inhibition (INH) [1]: Not Active | IC50 [2]: 260 nM | IC50 [3]: 170 nM | IC50 [4]: 170 nM | IC50 [5]: 4110 nM | inhibition [6]: Dose-dependent effect

CC(C)[C@@H]1NC(=O)[C@]2(C)CSC(=N2)c2csc(n2)CNC(=O)C[C@@H](/C=C/C(F)(F)CS)OC1=O
IC50 [7]: 44.1 nM | IC50 [8]: 8.21 nM | Ratio IC50 [9]: 79 | Ratio IC50 [10]: 79 | IC50 [11]: 898 nM | inhibition (INH) [11]: Dose-dependent effect | IC50 [12]: 18.5 nM | IC50 [13]: 11.9 nM

CC(C)[C@@H]1NC(=O)[C@]2(C)CSC(=N2)c2csc(n2)CNC(=O)C[C@H](/C(F)=C/CCS)OC1=O
IC50 [7]: 378 nM | IC50 [8]: 51.4 nM | IC50 [11]: 1830 nM | inhibition (INH) [11]: Dose-dependent effect | IC50 [12]: 95.5 nM | IC50 [13]: 78.5 nM

CCCCCCCC(=O)SCC/C=C(\F)[C@@H]1CC(=O)NCc2nc(cs2)C2=N[C@@](C)(CS2)C(=O)N[C@@H](C(C)C)C(=O)O1
IC50 [8]: 2300 nM | IC50 [2]: 240 nM | IC50 [3]: 520 nM | IC50 [4]: 810 nM | IC50 [11]: > 5000 nM | inhibition (INH) [11]: Dose-dependent effect | IC50 [5]: 3850 nM

CCCCCCCC(=O)SCC/C=C(\F)[C@@H]1CC(=O)NCc2nc(cs2)C2=N[C@@](C)(CS2)C(=O)N[C@@H](C(C)C)C(=O)N1
IC50 [2]: > 10000 nM | IC50 [3]: > 10000 nM | IC50 [4]: 6620 nM | IC50 [5]: > 10000 nM

CC(C)[C@@H]1NC(=O)[C@]2(C)CSC(=N2)c2csc(n2)CNC(=O)C(F)(F)[C@@H](/C=C/CCS)NC1=O
IC50 [7]: 166 nM | IC50 [8]: 7.43 nM | IC50 [11]: 1410 nM | inhibition (INH) [11]: Dose-dependent effect | IC50 [12]: 9.25 nM | IC50 [13]: 6.31 nM

CCCCCCCC(=O)SCC/C=C/[C@@H]1CC(=O)NCc2nc(cs2)C2=N[C@@](C)(CS2)C(=O)N[C@@H](C(C)C)C(=O)O1 [LARGAZOLE]
IC50 [2]: 250 nM | IC50 [3]: 460 nM | IC50 [4]: 44 to 110 nM | inhibition (INH) [11]: Dose-dependent effect | IC50 [5]: 4750 nM

CC(C)[C@@H]1NC(=O)[C@]2(C)CSC(=N2)c2csc(n2)CNC(=O)C[C@@H](/C=C/CCS)OC1=O
inhibition (INH) [11]: Dose-dependent effect

CCCCCCCC(=O)SCC(F)(F)/C=C/[C@@H]1CC(=O)NCc2nc(cs2)C2=N[C@@](C)(CS2)C(=O)N[C@@H](C(C)C)C(=O)O1
IC50 [2]: > 10000 nM | IC50 [3]: > 10000 nM | IC50 [4]: > 10000 nM | IC50 [5]: > 10000 nM

CCCCCCCC(=O)SCC/C=C(\F)[C@H]1CC(=O)NCc2nc(cs2)C2=N[C@@](C)(CS2)C(=O)N[C@@H](C(C)C)C(=O)O1
IC50 [2]: > 10000 nM | IC50 [3]: > 10000 nM | IC50 [4]: > 10000 nM | IC50 [5]: > 10000 nM

CCCCCCCC(=O)SCC/C=C/[C@H]1NC(=O)[C@H](C(C)C)NC(=O)[C@]2(C)CSC(=N2)c2csc(n2)CNC(=O)C1(F)F
IC50 [2]: > 10000 nM | IC50 [3]: > 10000 nM | IC50 [4]: > 10000 nM | IC50 [5]: > 10000 nM

CC(C)[C@@H]1NC(=O)[C@]2(C)CSC(=N2)c2csc(n2)CNC(=O)C[C@@H](/C=C(\F)CCS)OC1=O
IC50 [7]: 0.41 nM | IC50 [8]: 3.2 nM | IC50 [11]: 19.7 nM | inhibition (INH) [11]: Dose-dependent effect | IC50 [12]: 2.46 nM | IC50 [13]: 0.46 nM

CC(C)[C@@H]1NC(=O)[C@]2(C)CSC(=N2)c2csc(n2)CNC(=O)C[C@@H](/C(F)=C/CCS)OC1=O
inhibition (INH) [11]: Dose-dependent effect

O=C(CCCCCCC(=O)Nc1ccccc1)NO [VORINOSTAT]
inhibition (INH) [11]: Dose-dependent effect

CC(C)[C@@H]1NC(=O)[C@]2(C)CSC(=N2)c2csc(n2)CNC(=O)C[C@@H](/C(F)=C/CCS)NC1=O
IC50 [7]: 27.1 nM | IC50 [8]: 8.53 nM | IC50 [11]: 333 nM | inhibition (INH) [11]: Dose-dependent effect | IC50 [12]: 7.42 nM | IC50 [13]: 2.9 nM
